Several values for one entry are separate records, joined by “and”; a condition that tells them apart may be missing. Identical values can stand only once. Entries after “also recorded” stand apart in the source; their conditions may differ.
Assays:
hemolytic toxins = details: 10 mM D-lactulose; cited from earlier work
[1] = system: Chironex fleckeri venom in isolated red blood cells (2% RBC); assay type: cell-based, human
[2] = system: Chironex fleckeri venom in whole blood; assay type: cell-based, human
viral porin = assay: Human subjects exposed to a viral porin, intravenous (Example 12); assay type: in vivo; details: IV 2.5 to 4 mg per day
Procedure: In this Example, human subjects are treated with zinc gluconate intravenously after being exposed to a viral porin. […] Samples are removed to monitor levels of potassium, cytokines, histamine, and catecholamine, in the blood serum.

Chironex fleckeri venom = assay: Mouse envenomation model with echocardiography/electrocardiography, survival, plasma hemoglobin and potassium (Example 6); assay type: in vivo
cubozoan porin [3] = details: pig, in vivo
cubozoan porin [4] = assay: Human subjects envenomated by a cubozoan porin, subcutaneous bolus then continuous IV (Example 9); assay type: in vivo; details: subcutaneous bolus 5 mL of 100 mM, then IV 5 mM
[5] = system: Chironex fleckeri venom in whole blood; assay: Catecholamine and histamine response in whole blood exposed to Chironex fleckeri venom; assay type: cell-based, human; details: CF venom, 5 mM zinc gluconate, FIG. 8
cubozoan porin [6] = assay: Human subjects envenomated by a cubozoan porin, intravenous zinc gluconate (Example 8); assay type: in vivo; details: IV infusion 2.5 to 4 mg per day
[7] = system: mushroom pore-forming toxin; assay: Human subjects exposed to a mushroom pore-forming toxin, intravenous (Example 13); assay type: in vivo; details: IV 2.5 to 4 mg per day
Procedure: In this Example, human subjects are treated with zinc gluconate intravenously after being exposed to a mushroom pore-forming toxin. […] Samples are removed to monitor levels of potassium, cytokines, histamine, and catecholamine, in the blood serum.

cubozoan porin [8] = assay: Human subjects envenomated by a cubozoan porin, transdermal patch (Example 10); assay type: in vivo; details: iontophoresis, 5 mM at 40 mAmp/min
[9] = system: Carybdea alata venom in isolated red blood cells (2% RBC); assay: Hemolysis induced by Carybdea alata venom in 2% RBC; assay type: cell-based, human
[10] = system: Chironex fleckeri venom in whole blood; assay: Hemolysis induced by Chironex fleckeri venom in whole blood; assay type: cell-based, human; details: 5 mM zinc gluconate, compared to untreated cells, FIG. 6
[11] = system: Chironex fleckeri venom in whole blood; assay: Cytokine production in whole blood exposed to Chironex fleckeri venom; assay type: cell-based, human; details: CF venom, 5 mM zinc gluconate, FIG. 7
bacterial porin = assay: Human subjects exposed to a bacterial porin, intravenous (Example 11); assay type: in vivo; details: IV 2.5 to 4 mg per day
Procedure: In this Example, human subjects are treated with zinc gluconate intravenously after being exposed to a bacterial porin. […] Samples are removed to monitor levels of potassium, cytokines, histamine, and catecholamine, in the blood serum.

[12] = system: Carybdea alata venom in isolated red blood cells (2% RBC); assay type: cell-based, human
[13] = mice, Zn Gluc then 2000 U venom IV, cardiac blood at death

Molecule: OC[C@H]1O[C@@H](O[C@@H]2[C@@H](CO)O[C@](O)(CO)[C@H]2O)[C@H](O)[C@@H](O)[C@H]1O [D-lactulose]
- Hemolysis (hemolytic toxins): dramatic absence of hemolysis

Molecule: zinc gluconate
- potassium efflux induced by Chironex fleckeri venom [1]: fully inhibited
- potassium efflux induced by Chironex fleckeri venom [2]: inhibited
- health of the subject (viral porin): improve the health of the subject
- severity of physiological symptoms associated with porin exposure (viral porin): reduce the severity of physiological symptoms
- EKG recovery (Chironex fleckeri venom; Mouse 2010-6-09-2, FIG. 10): recovered within thirty seconds
- time of cessation of ventricular contraction (Chironex fleckeri venom; Mouse 2010-6-09-2, FIG. 10): 10.5 min
- time of recovery of ventricular contraction (Chironex fleckeri venom; Mouse 2010-6-09-2, FIG. 10): 11 min
- rebounds of ventricular contraction subsequent to periods of pulseless electrical activity (PEA) (Chironex fleckeri venom; mice pre-injected with zinc gluconate, in three mice): frequently observed
- Hemolysis (Chironex fleckeri venom; [13]): 6% and 4% and 2% and 3%
- Plasma Hgb (Chironex fleckeri venom; [13]): 860 mg/100 mL and 673 mg/100 mL and 471 mg/100 mL
- survival rates (Chironex fleckeri venom; relative to the untreated mice, FIG. 11): higher survival rates
- duration of survival post-envenomation (survival times) (Chironex fleckeri venom; relative to the untreated mice, intravenous, FIG. 11, P<0.0001): longer durations of survival; also recorded: significantly prolonged
- normal EKG conductive sequences maintained (Chironex fleckeri venom; zinc treated animals exposed to cubozoan PFT): for longer periods
- severity of symptoms (cubozoan porin [3]): reduce the severity of symptoms
- survival (cubozoan porin [3]): siginificantly improve survival
- likelihood of a lethal outcome (cubozoan porin [4]): decrease the likelihood a lethal outcome
- severity of physiological symptoms associated with the venom poisoning (cubozoan porin [4]): reduce the severity of physiological symptoms
- catecholamine response [5]: reduced
- histamine response [5]: reduced
- likelihood of a lethal outcome (cubozoan porin [6]): decrease the likelihood a lethal outcome
- severity of physiological symptoms associated with the venom poisoning (cubozoan porin [6]): reduce the severity of physiological symptoms
- health of the subject [7]: improve the health of the subject
- severity of physiological symptoms associated with porin exposure [7]: reduce the severity of physiological symptoms
- likelihood of a lethal outcome (cubozoan porin [8]): decrease the likelihood a lethal outcome
- severity of physiological symptoms associated with the venom poisoning (cubozoan porin [8]): reduce the severity of physiological symptoms
- hemolysis induced by Carybdea alata venom ([9]; 2% RBC, 5 mM zinc gluconate): substantially inhibited
- decrease of the total hemolytic capacity of the venom dose ([9]; venom dose 6.4 U/ml): more than 10 fold
- hemolysis induced by Chironex fleckeri venom [10]: substantially less severe hemolysis
- production of EGF [11]: reduced
- production of G-CSF [11]: reduced
- production of GRO [11]: reduced
- production of IFNα2 [11]: reduced
- production of PDGF-AA [11]: reduced
- production of TNFα [11]: reduced
- health of the subject (bacterial porin): improve the health of the subject
- severity of physiological symptoms associated with porin exposure (bacterial porin): reduce the severity of physiological symptoms
- potassium efflux induced by Carybdea alata venom [12]: fully inhibited

From patent US20130078317A1, “ZINC-CONTAINING COMPOSITIONS FOR THE TREATMENT OF DISEASES, ILLNESSES AND SYNDROMES ASSOCIATED WITH EXPOSURE TO PORE FORMING TOXINS” (priority 2009, published 2013)
